Experimental data taken from patent publication US11938122B2, “5-[[4-[2-[5-(1-hydroxyethyl)pyridin-2-yl]ethoxy]phenyl]methyl]-1,3- thiazolidine-2,4-dione for treating nonalcoholic fatty liver disease” (Minoryx Therapeutics S.L., priority 2016, dated 2024).

Key:
[1] = MIN-102 single oral dose (SAD) pharmacokinetics in healthy subjects; conditions: human, in vivo, some doses
CYP2B6 [2] = biological target: T1, CYP2B6 (Homo sapiens, UniProt P20813); experiment: CYP inhibition, cocktail incubation, pooled human liver microsomes; type: in vitro ADME; conditions: reaction OH-BUP
T1 construct: in incubations with a pool of human liver microsomes; from tissue; host or cells: pooled human liver microsomes
T1 sequence (P20813 1-491): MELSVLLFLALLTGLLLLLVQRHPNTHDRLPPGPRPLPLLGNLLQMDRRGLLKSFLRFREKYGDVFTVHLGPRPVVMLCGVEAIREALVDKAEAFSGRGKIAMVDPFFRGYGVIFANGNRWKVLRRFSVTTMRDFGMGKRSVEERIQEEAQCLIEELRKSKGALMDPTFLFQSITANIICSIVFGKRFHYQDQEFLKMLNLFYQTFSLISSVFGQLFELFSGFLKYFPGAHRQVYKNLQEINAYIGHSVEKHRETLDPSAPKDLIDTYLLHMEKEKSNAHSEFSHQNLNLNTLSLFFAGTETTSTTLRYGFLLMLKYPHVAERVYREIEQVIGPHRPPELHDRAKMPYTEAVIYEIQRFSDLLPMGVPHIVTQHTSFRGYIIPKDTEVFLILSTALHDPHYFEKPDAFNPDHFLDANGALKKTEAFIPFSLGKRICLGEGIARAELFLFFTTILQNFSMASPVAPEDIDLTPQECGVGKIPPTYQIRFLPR
Protocol: (§1) Inhibition was screened using a cocktail incubation with CYP specific substrates for eight major drug metabolizing CYP enzymes (CYPs 1A2, 2A6, 2B6, 2C8, 2C9, 2C19, 2D6 and 3A4) in incubations with a pool of human liver microsomes. In reversible inhibition, MIN-102 was incubated with buffer, microsomes, cofactor NADPH and CYP-specific substrate cocktail mix for 15 min. In TDI study, buffer and microsomes were preincubated with MIN-102 in the presence and absence of cofactor NADPH for 0 or 30 min to elucidate the possible time-dependency of inhibition. Secondary incubation was conducted with CYP-specific substrate cocktail mix for 30 min. MIN-102 was used at final concentrations of 0.01, 0.1, 1, 10, and 100 μM in both assays.

CYP2C8 = biological target: T2, CYP2C8 (Homo sapiens, UniProt P10632); experiment: as above; type: in vitro ADME; conditions: reaction OH-REPA
T2 construct: in incubations with a pool of human liver microsomes; from tissue; host or cells: pooled human liver microsomes
T2 sequence (P10632 1-490): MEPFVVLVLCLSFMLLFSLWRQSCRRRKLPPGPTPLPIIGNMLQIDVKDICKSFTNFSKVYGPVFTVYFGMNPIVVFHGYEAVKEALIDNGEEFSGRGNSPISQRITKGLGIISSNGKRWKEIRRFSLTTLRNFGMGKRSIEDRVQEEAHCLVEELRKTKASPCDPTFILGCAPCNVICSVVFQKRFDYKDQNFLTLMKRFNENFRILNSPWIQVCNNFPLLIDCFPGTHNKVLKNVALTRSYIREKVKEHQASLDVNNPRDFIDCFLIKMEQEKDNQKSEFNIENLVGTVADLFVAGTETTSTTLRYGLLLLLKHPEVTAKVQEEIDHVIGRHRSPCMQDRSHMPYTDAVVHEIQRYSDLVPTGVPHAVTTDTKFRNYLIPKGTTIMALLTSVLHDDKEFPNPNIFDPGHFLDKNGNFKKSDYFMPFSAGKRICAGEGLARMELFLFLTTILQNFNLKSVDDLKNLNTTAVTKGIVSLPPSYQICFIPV
Protocol: as §1

CYP2A6 = biological target: T3, CYP2A6 (Homo sapiens, UniProt P11509); experiment: as above; type: in vitro ADME; conditions: reaction 7OH-COU
T3 construct: in incubations with a pool of human liver microsomes; from tissue; host or cells: pooled human liver microsomes
T3 sequence (P11509 1-494): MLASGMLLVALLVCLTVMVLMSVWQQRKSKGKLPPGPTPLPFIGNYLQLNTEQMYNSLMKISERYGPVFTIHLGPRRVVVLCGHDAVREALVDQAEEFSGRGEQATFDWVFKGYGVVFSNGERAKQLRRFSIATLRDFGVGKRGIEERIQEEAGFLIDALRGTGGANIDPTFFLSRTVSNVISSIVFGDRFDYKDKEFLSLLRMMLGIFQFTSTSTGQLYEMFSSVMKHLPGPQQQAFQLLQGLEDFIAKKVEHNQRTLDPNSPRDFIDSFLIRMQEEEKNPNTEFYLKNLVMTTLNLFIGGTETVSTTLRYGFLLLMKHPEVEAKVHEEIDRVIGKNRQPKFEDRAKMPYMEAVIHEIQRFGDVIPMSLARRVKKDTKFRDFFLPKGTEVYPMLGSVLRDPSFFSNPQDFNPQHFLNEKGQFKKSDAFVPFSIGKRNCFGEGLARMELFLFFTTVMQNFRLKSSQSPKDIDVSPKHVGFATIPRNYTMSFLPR
Protocol: as §1

CYP3A4 = biological target: T4, CYP3A4 (Homo sapiens, UniProt P08684); experiment: as above; type: in vitro ADME
T4 construct: in incubations with a pool of human liver microsomes; from tissue; host or cells: pooled human liver microsomes
Protocol: as §1

CYP2C9 = biological target: T5, CYP2C9 (Homo sapiens, UniProt P11712); experiment: as above; type: in vitro ADME; conditions: reaction OH-DICL
T5 construct: in incubations with a pool of human liver microsomes; from tissue; host or cells: pooled human liver microsomes
Protocol: as §1

CYP2D6 = biological target: T6, CYP2D6 (Homo sapiens, UniProt P10635); experiment: as above; type: in vitro ADME; conditions: reaction O-dem-DEX
T6 construct: in incubations with a pool of human liver microsomes; from tissue; host or cells: pooled human liver microsomes
Protocol: as §1

EAE mouse model = experiment: Experimental autoimmune encephalitis (EAE) mouse model; type: in vivo; conditions: EAE mice, highest dose (125 mg/Kg/day oral, bid)
Excerpt: The anti-inflammatory potential of MIN-102 was studied using an EAE mouse model, e.g., as described in Linker and Lee, Experimental & Translational Stroke Medicine 1:5 (2009). This model for neuroinflammation is a highly reproducible and long established model of multiple sclerosis. The model is based on the induction of an autoimmune reaction upon the exposure of the animals to myelin antigens. Several days after inoculation, e.g., 9-12 days, the mouse develops a relapsing-remitting or chronic disease course.
In the study, female C57Bl/6 mice were sensitized by a subcutaneous injection of myelin oligodendrocyte glycoprotein peptide fragment 35-55 (MOG35-55) in Freund's Complete Adjuvant (CFA) at the tail base. Starting at five days after disease induction, the animals were treated at three different oral doses of MIN-102, 17, 50, and 125 mg/Kg/day, using bid administration. From day five, the animals were weighed and scored for the appearance of disease symptoms. The levels of neutrophils were measured in mice from the naïve, vehicle, and the highest MIN-102 dose. Data were analyzed by one-way ANOVA followed by the Dunnett's post-hoc test versus the vehicle group (*, p <0.05). Results are presented as mean+standard error of the mean of n=10, except n=9 for the highest dose of MIN-102, and n=4 for the naïve group.

CYP2B6 [3] = experiment: CYP induction in cryopreserved human hepatocytes; type: in vitro ADME; conditions: 50 μM, hepatocytes from 3 human donors
CYP1A2 = experiment: CYP induction in cryopreserved human hepatocytes; type: in vitro ADME; conditions: 50 μM, hepatocytes from 3 human donors

T4 sequence (P08684 whole entry): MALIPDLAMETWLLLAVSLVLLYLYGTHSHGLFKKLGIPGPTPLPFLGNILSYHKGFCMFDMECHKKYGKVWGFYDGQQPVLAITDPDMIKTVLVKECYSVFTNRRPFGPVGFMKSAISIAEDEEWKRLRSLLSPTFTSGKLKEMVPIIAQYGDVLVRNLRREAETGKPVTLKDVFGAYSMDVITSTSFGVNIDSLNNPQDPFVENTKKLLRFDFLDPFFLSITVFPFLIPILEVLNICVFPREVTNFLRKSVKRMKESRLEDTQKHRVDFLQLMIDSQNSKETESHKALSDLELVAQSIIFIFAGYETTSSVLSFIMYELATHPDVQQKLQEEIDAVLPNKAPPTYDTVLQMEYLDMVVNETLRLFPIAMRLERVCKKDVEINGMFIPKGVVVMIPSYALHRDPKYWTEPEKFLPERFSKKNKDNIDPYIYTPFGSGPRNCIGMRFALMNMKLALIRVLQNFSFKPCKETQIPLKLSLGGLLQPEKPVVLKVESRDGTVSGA
T5 sequence (P11712 whole entry): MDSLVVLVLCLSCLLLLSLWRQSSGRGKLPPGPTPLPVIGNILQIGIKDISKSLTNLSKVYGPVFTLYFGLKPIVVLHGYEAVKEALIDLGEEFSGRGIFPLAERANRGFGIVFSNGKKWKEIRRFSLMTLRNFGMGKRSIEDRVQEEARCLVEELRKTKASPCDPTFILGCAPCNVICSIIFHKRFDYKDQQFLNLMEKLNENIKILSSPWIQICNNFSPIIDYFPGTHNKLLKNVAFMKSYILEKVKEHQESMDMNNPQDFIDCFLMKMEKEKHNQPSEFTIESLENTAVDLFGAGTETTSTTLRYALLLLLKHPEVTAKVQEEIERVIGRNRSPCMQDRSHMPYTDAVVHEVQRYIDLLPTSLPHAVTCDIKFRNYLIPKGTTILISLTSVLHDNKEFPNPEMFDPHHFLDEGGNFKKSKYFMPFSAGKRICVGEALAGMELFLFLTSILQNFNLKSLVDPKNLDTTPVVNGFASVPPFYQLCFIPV
T6 sequence (P10635 whole entry): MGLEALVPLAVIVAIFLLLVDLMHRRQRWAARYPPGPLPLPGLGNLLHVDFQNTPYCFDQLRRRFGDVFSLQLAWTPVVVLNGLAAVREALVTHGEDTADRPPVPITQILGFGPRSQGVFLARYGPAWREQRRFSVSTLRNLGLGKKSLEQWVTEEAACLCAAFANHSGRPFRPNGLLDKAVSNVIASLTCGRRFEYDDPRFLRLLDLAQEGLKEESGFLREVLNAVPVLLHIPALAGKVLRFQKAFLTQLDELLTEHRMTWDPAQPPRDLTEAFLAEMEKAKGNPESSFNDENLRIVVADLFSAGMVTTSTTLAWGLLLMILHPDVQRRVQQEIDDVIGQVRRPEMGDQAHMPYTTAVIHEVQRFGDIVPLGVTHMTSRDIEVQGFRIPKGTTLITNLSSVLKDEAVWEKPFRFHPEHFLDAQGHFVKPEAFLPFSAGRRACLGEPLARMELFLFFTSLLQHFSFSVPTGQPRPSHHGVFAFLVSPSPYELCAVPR

With `CC(O)c1ccc(CCOc2ccc(CC3SC(=O)NC3=O)cc2)nc1` (racemic) [MIN-102, 5-[[4-[2-[5-(1-hydroxyethyl)pyridin-2-yl]ethoxy]phenyl]methyl]-1,3-thiazolidine-2,4-dione] as the compound, how does the AUC(0-inf) [1] read?
The AUC(0-inf) was 20 to 400 µg·h/mL.

What about the IC50 (CYP2B6 [2]) of the same compound?
Its IC50 is > 100 µM.

And the IC50 (CYP2C8)?
Its IC50 is 102 µM.

And the Ki (CYP2C8; read-out: Tentative Ki)?
The Ki was 84 µM.

And the IC50 (CYP2A6)?
Its IC50 is > 100 µM.

What about the IC50 (CYP3A4; reaction 1-OH-MDZ) of the same compound?
The IC50 was > 100 µM.

And the IC50 (CYP3A4; reaction 3-OH-OME)?
Its IC50 is > 100 µM.

And the IC50 (CYP3A4; reaction 6β-OH-TES)?
The IC50 was > 100 µM.

What about the IC50 (CYP3A4; reaction SO-OME) of the same compound?
Its IC50 is > 100 µM.

And the IC50 (CYP2C9)?
The IC50 was 103 µM.

And the Ki (CYP2C9; read-out: Tentative Ki)?
Its Ki is 52 µM.

What about the IC50 (CYP2D6) of the same compound?
The IC50 was > 100 µM.

And the Lymphocyte number (EAE mouse model)?
Its Lymphocyte number is 3.6 ± 2.3 ×10^3 cells/μl.

What about the N/L ratio (EAE mouse model) of the same compound?
The N/L ratio was 0.52.

What about the Neutrophil number (EAE mouse model) of the same compound?
The Neutrophil number was 1.9 ± 0.6 ×10^3 cells/μl.

What about the “increase in activity of CYP2B6 probe reaction” value (CYP2B6 [3]) of the same compound?
The value was “less than 20 % of the respective positive control induction”.

What about the “increase in activity of CYP1A2 probe reaction” value (CYP1A2) of the same compound?
Its value is “less than 20 % of the respective positive control induction”.
